# Laboratory results published in US20260263485A1, “AMINOSTEROL COMPOUNDS, AMINOSTEROL-CYCLODEXTRIN FORMULATIONS, AND METHODS OF USING THE SAME” (Enterin, Inc., priority 2022, published 2026).
# “And” between values parts separate entries of the source, which are not always exact repeats. Equal entries are not always repeated. Where two headings read alike, the source gives them in different places.
# Columns and labels:
# [1] = Plasma pharmacokinetics of ENT-03S cyclodextrin formulation after subcutaneous injection; format: in vivo, rat; details: male, Sprague-Dawley, rat, plasma, sc, 10 mg/kg, 20% beta-cyclodextrin formulation, SC Dose 10 mg/kg, male SD rats, plasma
# Procedure: In this example, ENT-03S was formulated with unmodified beta-cyclodextrin at a concentration of 25 mg/ml ENT-03, and 20% beta-cyclodextrin, pH 7.5, buffered with phosphate.
# Male Sprague-Dawley rats were administered the ENT-03-cyclodextrin formulation subcutaneous at a dose of 10 mg/kg. Blood samples were drawn from the tail vein at various times, the concentrations of ENT-03 determined, and PK parameters determined.
# [2] = Plasma pharmacokinetics of aqueous ENT-03S solution without cyclodextrin after subcutaneous injection; format: in vivo, rat; details: 2 mg/ml, 10 mg/kg SC, male SD rats
# Procedure: The benefits provided by the aminosterol-cyclodextrin formulation disclosed herein can be appreciated by comparing the pharmacokinetics of an aqueous solution of ENT-03S in the absence of cyclodextrin at a concentration of ENT-03S of 2 mg/ml at […].
# (§1) The dose chosen was the maximum ENT-03S concentration that could be delivered to the rat without causing visible local tissue necrosis.
# The experiment was conducted in male Sprague-Dawley rats following the same protocol as above. The formulation was administered subcutaneously at a dose of 10 mg/kg. The data obtained are shown below in Tables 19 and 20 and FIG. 35.
# [3] = Subcutaneous injection into a human subject (local tolerability); format: in vivo
# Procedure: […] The contents of the syringe were injected subcutaneously in the abdominal area of a human subject creating a visible swelling.
# [4] = Visible local tissue necrosis on subcutaneous delivery to the rat; format: in vivo; details: aqueous solution in the absence of cyclodextrin, pH 74
# Description: as §1
# [5] = male, Sprague-Dawley, in vivo, sc, 10 mg/kg
# Procedure: An equal volume of rat bile samples (50 μL) were taken from different animals at different time points following administration of ENT-03S. 50 μL of matrix was mixed with 200 μL of methanol (containing 0.1% formic acid), vortexed for 100 seconds and then centrifuged at 16,000 g for 10 minutes at 4° C. to precipitate proteins. 100 μL of the supernatant was transferred to a new tube and the supernatant diluted with 100 μt, pure water, mixed well and analyzed using UPLC-MS/MS.
# The peak area percentages of parent drug and each metabolite were determined by semi-quantitative estimation using the extracted ion chromatogram peak areas of all detected drug-related material in the sample. Metabolites with percentage of peak area>10% are proposed as major metabolites of ENT-03S.
# Bile samples were obtained from male rats at various time points following a 10 mg/kg dose of ENT-03S via subcutaneous administration in bile dicut cannulated male SD rats as detailed in Table 10. The samples were transferred on dry ice and stored at −80° C. prior to use
# Study design: An equal volume of rat bile samples (50 μL) were taken from different animals at different time points following administration of ENT-03S in study No.: PII-DMPK-ETR-21-001. 50 μL of matrix was mixed with 200 μL of methanol (containing 0.1% formic acid), vortexed for 100 seconds and then centrifuged at 16,000 g for 10 minutes at 4° C. to precipitate proteins. 100 μL of the supernatant was transferred to a new tube and the supernatant diluted with 100 μL pure water, mixed well and analyzed using UPLC-MS/MS.
# Sample preparation: For bile samples, an equal volume of samples (50 μL) are taken from different animals at various time points after the administration of each group of samples, and the same group of samples are mixed thoroughly.
# Data Analysis: UPLC-MS/MS was used for sample analysis, and was conducted using a DionexUltiMate 3000/Vanquish UHPLC system. For mass spectrometry (MS), all analysis was carried out with a Q-Exactive instrument (Thermo Fisher). A full MS scan was used to trigger the data dependent acquisition (DDA) of MS/MS scan spectra. Compound dependent parameters were optimized by ENT-03S. DDA settings were used to trigger acquisition of MS^2 spectra for ions whose intensity is in top 5 of all, with exclusion of impurity ions (m/z 149.02332, m/z 279.15909, m/z 391.28429 and m/z 445.12003), after 3 occurrences for 10 s. Dynamic exclusion settings: automatic exclusion of the ions which have been taken.
# Data Analysis: The analysis was carried out using a thermo Fisher Scientific Q Exactive instrument. Full MS scan was used to trigger the data dependent acquisition (DDA) of MS/MS scan spectra. Compound dependent parameters were optimized by ENT-03S. DDA settings were used to trigger acquisition of MS^2 spectra for ions whose intensity was in the top 5 of all, with exclusion of ions (m/z 149.02332, m/z 279 1 5909, m/z 391.28429 and m/z 445 12003), after 3 occurrences for 10 s. Data was acquired and processed using Xcalibur v4.1 software (Thermo Fisher Scientific) and Compound Discoverer 3.1 (Thermo Fisher Scientific) and Excel (Microsoft 2016).
# [6] = 0. 1l of aqueous ENT-03S 2 mg/ml, pH 74, no cyclodextrin
compound,measurement,setting,value
"C[C@H](CCC[C@H](C)C(=O)O)[C@H]1CCC2C3C(CC[C@@]21C)[C@@]1(C)CC[C@H](NCCCNCCCCNCCCN)C[C@@H]1C[C@H]3O (stereo partly drawn) [ENT-03S, (2S,6R)-6-((3S,5R,7R,10S,13R,17R)-3-((3-((4-((3-aminopropyl)amino)butyl)amino)propyl)amino)-7-hydroxy-10,13-dimethylhexadecahydro-1 H-cyclopenta[a]phenanthren-17-yl)-2-methylheptanoic acid]",AUC(0-t),"[1]; individual rats, read-out: AUClast",716 µg·h/mL
same,AUC,"[1]; individual rats, read-out: AUClnf",767 µg·h/mL
same,Cmax,"[1]; individual rats, read-out: Cmax",31.3 µg/mL
same,half-life,"[1]; individual rats, read-out: T1/2 (converted)",19.4 h
same,AUC(0-t),"[1]; mean, read-out: AUClast Mean",824 µg·h/mL
same,AUC,"[1]; mean, read-out: AUClnf Mean",920 µg·h/mL
same,Cmax,"[1]; mean, read-out: Cmax Mean",32.4 µg/mL
same,half-life,"[1]; mean, read-out: T1/2 Mean (converted)",22.4 h
same,Concentration (ng/ml) Rat 1-3,"[2]; 0.25 h, individual rats, 10 mg/kg",1150 ng/mL and 702 ng/mL and 1930 ng/mL
same,Concentration (ng/ml) Rat 1-3,"[2]; 0.5 h, individual rats, 10 mg/kg",2300 ng/mL and 1490 ng/mL and 3220 ng/mL
same,Concentration (ng/ml) Rat 1-3,"[2]; 1 h, individual rats, 10 mg/kg",4910 ng/mL and 2590 ng/mL and 5570 ng/mL
same,Concentration (ng/ml) Rat 1-3,"[2]; 2 h, individual rats, 10 mg/kg",5900 ng/mL and 8620 ng/mL
same,Concentration (ng/ml) Rat 1-3,"[2]; 4 h, individual rats, 10 mg/kg",10800 ng/mL and 16100 ng/mL
same,Concentration (ng/ml) Rat 1-3,"[2]; 8 h, individual rats, 10 mg/kg",19600 ng/mL and 24800 ng/mL
same,Concentration (ng/ml) Rat 1-3,"[2]; 24 h, individual rats, 10 mg/kg",40000 ng/mL and 54300 ng/mL
same,AUClast,"[2]; individual rats, 10 mg/kg",559.927 µg·h/mL and 749.498 µg·h/mL
same,AUClast/D,"[2]; individual rats, 10 mg/kg",67500 kg·ng·h/mL/mg and 56000 kg·ng·h/mL/mg and 75000 kg·ng·h/mL/mg
same,Cmax,"[2]; individual rats, 10 mg/kg",40 µg/mL and 54.3 µg/mL
same,AUClast/D Mean,[2]; mean,66200 kg·ng·h/mL/mg
same,concentration at 0.25 h,"[2]; male, Sprague-Dawley, rat, plasma, sc, 10 mg/kg, 0.25 h, mean",1.26 µg/mL
same,concentration at 0.5 h,"[2]; male, Sprague-Dawley, rat, plasma, sc, 10 mg/kg, 0.5 h, mean",2.34 µg/mL
same,concentration at 1 h,"[2]; male, Sprague-Dawley, rat, plasma, sc, 10 mg/kg, 1 h, mean",4.36 µg/mL
same,concentration at 2 h,"[2]; male, Sprague-Dawley, rat, plasma, sc, 10 mg/kg, 2 h, individual rats, read-out: Concentration (ng/ml) Rat 1-3",8380 ng/mL
same,concentration at 2 h,"[2]; male, Sprague-Dawley, rat, plasma, sc, 10 mg/kg, 2 h, mean, read-out: Concentration Mean",7630 ng/mL
same,concentration at 4 h,"[2]; male, Sprague-Dawley, rat, plasma, sc, 10 mg/kg, 4 h, individual rats, read-out: Concentration (ng/ml) Rat 1-3",14100 ng/mL
same,concentration at 4 h,"[2]; male, Sprague-Dawley, rat, plasma, sc, 10 mg/kg, 4 h, mean, read-out: Concentration Mean",13700 ng/mL
same,concentration at 8 h,"[2]; male, Sprague-Dawley, rat, plasma, sc, 10 mg/kg, 8 h, individual rats, read-out: Concentration (ng/ml) Rat 1-3",26900 ng/mL
same,concentration at 8 h,"[2]; male, Sprague-Dawley, rat, plasma, sc, 10 mg/kg, 8 h, mean, read-out: Concentration Mean",23800 ng/mL
same,concentration at 24 h,"[2]; male, Sprague-Dawley, rat, plasma, sc, 10 mg/kg, 24 h, individual rats, read-out: Concentration (ng/ml) Rat 1-3",43300 ng/mL
same,concentration at 24 h,"[2]; male, Sprague-Dawley, rat, plasma, sc, 10 mg/kg, 24 h, mean, read-out: Concentration Mean",45900 ng/mL
same,Tmax,"[2]; male, Sprague-Dawley, rat, plasma, sc, 10 mg/kg, individual rats",24 h
same,AUC(0-t),"[2]; male, Sprague-Dawley, rat, plasma, sc, 10 mg/kg, individual rats, read-out: AUClast",675 µg·h/mL
same,Cmax,"[2]; male, Sprague-Dawley, rat, plasma, sc, 10 mg/kg, individual rats, read-out: Cmax",43.3 µg/mL
same,AUC(0-t),"[2]; male, Sprague-Dawley, rat, plasma, sc, 10 mg/kg, mean, read-out: AUClast Mean",662 µg·h/mL
same,Cmax,"[2]; male, Sprague-Dawley, rat, plasma, sc, 10 mg/kg, mean, read-out: Cmax Mean",45.9 µg/mL
same,"local swelling, redness, and warmth",[3]; [6],lasted for several days
same,pain on injection,[3]; [6],severe pain within seconds that persisted for several hours
same,disappearance of swelling at injection site,"[3]; 1 ml of Example 4 formulation (ENT-03S 50 mg/ml, 25% 2-hydroxypropyl β-cyclodextrin), abdominal area","Over the course of an hour, the swelling disappeared"
same,sensation on subcutaneous injection,"[3]; 1 ml of Example 4 formulation (ENT-03S 50 mg/ml, 25% 2-hydroxypropyl β-cyclodextrin, phosphate, pH 7.4-7.6), abdominal area","mild stinging sensation was noted, which disappeared within a few minutes"
same,maximum ENT-03S concentration that could be delivered to the rat without causing visible local tissue necrosis,[4],2 mg/mL
same,Metabolite peak area Rat Bile,[5],1.70E+07
same,Metabolite peak area percentages Rat Bile,[5],13.77%
